Consider 32 compounds from patent publication US20250051337A1 (priority 2021, published 2025).

Like-named read-outs stand apart in the source and are kept apart here. A value given as a limit tells only on which side of the number the result lay.

One assay addresses STK4 (Homo sapiens (Human), UniProt Q13043). Put plainly: ADP-Glo kinase assay, STK4. Format: biochemical. Here is the method:
(§1) The STK3 kinase assay was performed in 5 μL reaction buffer containing 50 ng recombinant human STK3 protein (full length, SignalChem #S24-10G; Richmond, Canada), 250 μg/mL myelin basic protein (Sigma-Aldrich #M1891; St. Louis, MO, USA), and 50 μM ATP (Sigma-Aldrich #A7699). The STK4 kinase assay was performed in 5 μL reaction buffer containing 50 ng recombinant human STK4 protein (full length, SignalChem #S25-10G), 300 μg/mL Axltide (SignalChem #A16-58), and 50 μM ATP. […] Three experiments were performed, each in triplicate.
(In general: ADP-Glo turns the ADP formed in a reaction into a luminescent signal.)

The target in another assay is STK3 (Homo sapiens (Human), UniProt Q13188). Briefly: ADP-Glo kinase assay, STK3. It counts as biochemical. Here is the method: as §1
STK3, sequence (Q13188 whole entry): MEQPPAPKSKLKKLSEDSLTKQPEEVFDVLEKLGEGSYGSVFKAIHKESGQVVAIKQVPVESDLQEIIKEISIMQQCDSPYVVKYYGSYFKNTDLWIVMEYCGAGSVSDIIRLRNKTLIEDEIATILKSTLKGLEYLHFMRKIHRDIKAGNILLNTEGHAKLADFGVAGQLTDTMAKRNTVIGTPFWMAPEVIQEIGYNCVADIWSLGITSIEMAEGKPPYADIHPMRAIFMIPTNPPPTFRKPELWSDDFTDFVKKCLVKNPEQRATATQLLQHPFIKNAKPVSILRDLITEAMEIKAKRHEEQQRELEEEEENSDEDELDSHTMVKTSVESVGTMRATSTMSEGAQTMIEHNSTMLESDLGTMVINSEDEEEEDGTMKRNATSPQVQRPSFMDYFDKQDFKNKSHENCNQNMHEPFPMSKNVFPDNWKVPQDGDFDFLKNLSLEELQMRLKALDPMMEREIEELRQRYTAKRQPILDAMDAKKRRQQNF
Setting [1] is: ADP-Glo, 50 μM ATP, read-out: STK4 IC50.
[2] abbreviates: ADP-Glo, 50 μM ATP, read-out: STK3 IC50.

STK4, sequence (Q13043 whole entry): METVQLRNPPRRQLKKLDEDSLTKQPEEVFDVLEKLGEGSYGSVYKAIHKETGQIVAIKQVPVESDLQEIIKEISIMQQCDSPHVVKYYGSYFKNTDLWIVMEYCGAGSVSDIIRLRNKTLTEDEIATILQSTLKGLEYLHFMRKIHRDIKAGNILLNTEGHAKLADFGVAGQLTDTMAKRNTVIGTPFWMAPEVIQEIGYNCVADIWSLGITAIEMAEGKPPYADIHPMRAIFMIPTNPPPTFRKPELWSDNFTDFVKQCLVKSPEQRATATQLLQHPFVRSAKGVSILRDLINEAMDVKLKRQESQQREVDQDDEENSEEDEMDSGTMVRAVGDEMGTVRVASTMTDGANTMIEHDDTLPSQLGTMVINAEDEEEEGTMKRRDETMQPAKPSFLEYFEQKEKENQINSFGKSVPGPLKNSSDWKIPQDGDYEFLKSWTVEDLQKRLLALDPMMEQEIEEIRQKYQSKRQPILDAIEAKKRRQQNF

Turning to `COc1ccc(CNc2ncnc3[nH]cc(-c4cccc(Cl)c4)c23)c(OC)c1` [Compound 73, 5-(3-chlorophenyl)-N-(2,4-dimethoxybenzyl)-7H-pyrrolo[2,3-d]pyrimidin-4-amine], the IC50 on STK4 (setting [1]) is 1 to 5 µM; at STK3 (setting [2]) it was over 5 µM.
In the case of `CC(CN)CNc1ncnc2[nH]cc(-c3cccc(Cl)c3)c12` (stereo not shown) [Compound 127, N^1-(5-(3-chlorophenyl)-7H-pyrrolo[2,3-d]pyrimidin-4-yl)-2-methylpropane-1,3-diamine], the IC50 on STK4 (setting [1]) and at STK3 (setting [2]) was under 1 µM in each case.
For the compound `Clc1cccc(-c2c[nH]c3ncnc(N4CCC4)c23)c1` [Compound 46, 4-(azetidin-1-yl)-5-(3-chlorophenyl)-7H-pyrrolo[2,3-d]pyrimidine], the IC50 at STK4 (setting [1]) and on STK3 (setting [2]) was 1 to 5 µM each time.
For the compound `CCN1CCN(c2ncnc3[nH]cc(-c4cccc(Cl)c4)c23)CC1` [Compound 48, 5-(3-chlorophenyl)-4-(4-ethylpiperazin-1-yl)-7H-pyrrolo[2,3-d]pyrimidine], the half-inhibitory concentration (IC50) at STK4 (setting [1]) and at STK3 (setting [2]) was over 5 µM each time.
As to `Clc1cccc(-c2c[nH]c3ncnc(NCc4ccncc4)c23)c1` [Compound 71, 5-(3-chlorophenyl)-N-(pyridin-4-ylmethyl)-7H-pyrrolo[2,3-d]pyrimidin-4-amine], the IC50 was 1 to 5 µM on STK4 (setting [1]) and over 5 µM on STK3 (setting [2]).
As to `CCCCNc1ncnc2[nH]cc(-c3cccc(Cl)c3)c12` [Compound 116, N-butyl-5-(3-chlorophenyl)-7H-pyrrolo[2,3-d]pyrimidin-4-amine], the half-maximal inhibitory concentration (IC50) on STK4 (setting [1]) and on STK3 (setting [2]) was under 1 µM in each case.
As for `CC(=O)c1ccc(-c2c[nH]c3ncnc(N4CCOCC4)c23)cc1` [Compound 29, 1-(4-(4-morpholino-7H-pyrrolo[2,3-d]pyrimidin-5-yl)phenyl)ethan-1-one], the IC50 at STK4 (setting [1]) is 1 to 5 µM; at STK3 (setting [2]), over 5 µM.
On the same counts, the results for `COC1CCN(c2ncnc3[nH]cc(-c4cccc(Cl)c4)c23)CC1` [Compound 110, 5-(3-chlorophenyl)-4-(4-methoxypiperidin-1-yl)-7H-pyrrolo[2,3-d]pyrimidine] are under 1 µM and under 1 µM.
With `C=CC(=O)Cc1nc(N2CCOCC2)c2c(-c3cccc(Cl)c3)c[nH]c2n1` [Compound 97, 1-(5-(3-chlorophenyl)-4-morpholino-7H-pyrrolo[2,3-d]pyrimidin-2-yl)but-3-en-2-one], the IC50 on STK4 (setting [1]) and at STK3 (setting [2]) was over 5 µM in each case.
Take `Clc1ccccc1-c1c[nH]c2ncnc(N3CCOCC3)c12` [Compound 24, 4-(5-(2-Chlorophenyl)-7H-pyrrolo[2,3-d]pyrimidin-4-yl)morpholine]: the IC50 on STK4 (setting [1]) and at STK3 (setting [2]) was 1 to 5 µM each time.
Turning to `CN(C)C1CCN(c2ncnc3[nH]cc(-c4cccc(Cl)c4)c23)CC1` [Compound 107, 1-(5-(3-chlorophenyl)-7H-pyrrolo[2,3-d]pyrimidin-4-yl)-N,N-dimethylpiperidin-4-amine], the half-inhibitory concentration (IC50) on STK4 (setting [1]) and at STK3 (setting [2]) was under 1 µM in each case.
Take `Clc1cccc(-c2c[nH]c3ncnc(N4CCC(Cc5ccccc5)CC4)c23)c1` [Compound 90, 4-(4-benzylpiperidin-1-yl)-5-(3-chlorophenyl)-7H-pyrrolo[2,3-d]pyrimidine]: the half-inhibitory concentration (IC50) on STK4 (setting [1]) and on STK3 (setting [2]) was over 5 µM each time.
Take `Clc1cccc(-c2c[nH]c3ncnc(N4CCC(c5ccccc5)CC4)c23)c1` [Compound 87, 5-(3-chlorophenyl)-4-(4-phenylpiperidin-1-yl)-7H-pyrrolo[2,3-d]pyrimidine]: the 50% inhibitory concentration (IC50) on STK4 (setting [1]) and at STK3 (setting [2]) was over 5 µM throughout.
For the compound `c1ccc(-c2c[nH]c3ncnc(N4CCOCC4)c23)cc1` [Compound 1, 4-(5-Phenyl-7H-pyrrolo[2,3-d]pyrimidin-4-yl)morpholine], the half-inhibitory concentration (IC50) on STK4 (setting [1]) and at STK3 (setting [2]) was under 1 µM each time.
For the compound `CN1CCN(c2ncnc3[nH]cc(-c4cccc(Cl)c4)c23)CC1` [Compound 47, 5-(3-chlorophenyl)-4-(4-methylpiperazin-1-yl)-7H-pyrrolo[2,3-d]pyrimidine], the half-maximal inhibitory concentration (IC50) at STK4 (setting [1]) and on STK3 (setting [2]) was 1 to 5 µM throughout.
Regarding `Clc1cc(-c2c[nH]c3ncnc(N4CCOCC4)c23)ccn1` [Compound 31, 4-(5-(2-chloropyridin-4-yl)-7H-pyrrolo[2,3-d]pyrimidin-4-yl)morpholine], the 50% inhibitory concentration (IC50) at STK4 (setting [1]) and at STK3 (setting [2]) was 1 to 5 µM throughout.
For the compound `Clc1cccc(-c2c[nH]c3ncnc(NCCC(c4ccccc4)c4ccccc4)c23)c1` [Compound 88, 5-(3-chlorophenyl)-N-(3,3-diphenylpropyl)-7H-pyrrolo[2,3-d]pyrimidin-4-amine], the IC50 on STK4 (setting [1]) and on STK3 (setting [2]) was over 5 µM each time.
Regarding `CCNc1ncnc2[nH]cc(-c3cccc(Cl)c3)c12` [Compound 49, 5-(3-chlorophenyl)-N-ethyl-7H-pyrrolo[2,3-d]pyrimidin-4-amine], the concentration for half-maximal inhibition (IC50) on STK4 (setting [1]) and on STK3 (setting [2]) was under 1 µM in each case.
As for `Clc1cccc(-c2c[nH]c3ncnc(NCCc4ccccn4)c23)c1` [Compound 63, 5-(3-chlorophenyl)-N-(2-(pyridin-2-yl)ethyl)-7H-pyrrolo[2,3-d]pyrimidin-4-amine], the IC50 is under 1 µM at STK4 (setting [1]) and 1 to 5 µM at STK3 (setting [2]).
On to `CCN(CC)CCNc1ncnc2[nH]cc(-c3cccc(Cl)c3)c12` [Compound 82, N1-(5-(3-chlorophenyl)-7H-pyrrolo[2,3-d]pyrimidin-4-yl)-N2,N2-diethylethane-1,2-diamine], for which the 50% inhibitory concentration (IC50) on STK4 (setting [1]) and on STK3 (setting [2]) was over 5 µM each time.
Turning to `Cn1cc(-c2cccc(Cl)c2)c2c(N3CCOCC3)ncnc21` [Compound 95, 4-(5-(3-chlorophenyl)-7-methyl-7H-pyrrolo[2,3-d]pyrimidin-4-yl)morpholine], the concentration for half-maximal inhibition (IC50) on STK4 (setting [1]) and on STK3 (setting [2]) was over 5 µM each time.
Turning to `Cc1noc(C)c1-c1c[nH]c2ncnc(N3CCOCC3)c12` [Compound 43, 4-(5-(3,5-dimethylisoxazol-4-yl)-7H-pyrrolo[2,3-d]pyrimidin-4-yl)morpholine], the half-maximal inhibitory concentration (IC50) on STK4 (setting [1]) and on STK3 (setting [2]) was over 5 µM throughout.
With `Clc1cccc(-c2n[nH]c3ncnc(N4CCOCC4)c23)c1` [Compound 19, 4-(3-(3-chlorophenyl)-1H-pyrazolo[3,4-d]pyrimidin-4-yl)morpholine], the concentration for half-maximal inhibition (IC50) on STK4 and at STK3 was 1 to 5 µM throughout.
As to `COc1cccc(CNc2ncnc3[nH]cc(-c4cccc(Cl)c4)c23)c1` [Compound 74, 5-(3-chlorophenyl)-N-(3-methoxybenzyl)-7H-pyrrolo[2,3-d]pyrimidin-4-amine], the IC50 at STK4 (setting [1]) and on STK3 (setting [2]) was over 5 µM throughout.
In the case of `FC(F)(F)CNc1ncnc2[nH]cc(-c3cccc(Cl)c3)c12` [Compound 55, 5-(3-chlorophenyl)-N-(2,2,2-trifluoroethyl)-7H-pyrrolo[2,3-d]pyrimidin-4-amine], the IC50 at STK4 (setting [1]) is under 1 µM; at STK3 (setting [2]), 1 to 5 µM.
Regarding `c1nc(N2CCOCC2)c2c(-c3cnoc3)c[nH]c2n1` [Compound 42, 4-(5-(isoxazol-4-yl)-7H-pyrrolo[2,3-d]pyrimidin-4-yl)morpholine], the 50% inhibitory concentration (IC50) at STK4 (setting [1]) is under 1 µM; on STK3 (setting [2]) it was 1 to 5 µM.
As for `Cc1ccc(CNc2ncnc3[nH]cc(-c4cccc(Cl)c4)c23)cc1C` [Compound 85, 5-(3-chlorophenyl)-N-(3,4-dimethylbenzyl)-7H-pyrrolo[2,3-d]pyrimidin-4-amine], the 50% inhibitory concentration (IC50) on STK4 (setting [1]) and on STK3 (setting [2]) was over 5 µM throughout.
In the case of `c1cc(-c2c[nH]c3ncnc(N4CCOCC4)c23)ccn1` [Compound 35, 4-(5-(pyridin-4-yl)-7H-pyrrolo[2,3-d]pyrimidin-4-yl)morpholine], the IC50 at STK4 (setting [1]) and on STK3 (setting [2]) was over 5 µM throughout.
Take `C=CCNc1ncnc2[nH]cc(-c3cccc(Cl)c3)c12` [Compound 53, N-allyl-5-(3-chlorophenyl)-7H-pyrrolo[2,3-d]pyrimidin-4-amine]: the 50% inhibitory concentration (IC50) on STK4 (setting [1]) and at STK3 (setting [2]) was under 1 µM in each case.
Turning to `O=[N+]([O-])c1ccc(Nc2nc(N3CCOCC3)c3c(-c4cccc(Cl)c4)c[nH]c3n2)cc1` [Compound 101, 5-(3-chlorophenyl)-4-morpholino-N-(4-nitrophenyl)-7H-pyrrolo[2,3-d]pyrimidin-2-amine], the concentration for half-maximal inhibition (IC50) on STK4 (setting [1]) and at STK3 (setting [2]) was over 5 µM in each case.
Take `CCCNc1ncnc2[nH]cc(-c3cccc(Cl)c3)c12` [Compound 50, 5-(3-chlorophenyl)-N-propyl-7H-pyrrolo[2,3-d]pyrimidin-4-amine]: the 50% inhibitory concentration (IC50) at STK4 (setting [1]) and on STK3 (setting [2]) was under 1 µM throughout.
In the case of `COc1ncc(-c2c[nH]c3ncnc(N4CCOCC4)c23)cn1` [Compound 38, 4-(5-(2-methoxypyrimidin-5-yl)-7H-pyrrolo[2,3-d]pyrimidin-4-yl)morpholine], the IC50 at STK4 (setting [1]) and at STK3 (setting [2]) was over 5 µM each time.

For orientation: IC50 means the point on the concentration scale where inhibition reaches its midpoint.
